# Key:
# Test in all cases: relative viability (nuclei count vs DMSO), 5 days (fraction); higher = more cells survive
# NCI-H520 = system: NCI-H520
# Summary of the method: (§1)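 For relative viability, nuclei counts in treated wells were divided by those in vehicle wells. Lung cancer cell lines had been pin-tool dosed in 1536-well plates the day after seeding and cultured for 5 days, then fixed and stained in one step (final 0.05% Triton X-100, 1% formaldehyde, 1 ug/ml Hoechst) and imaged at 4×. Doses were one drug alone or a fixed anchor-drug dose plus five library-drug doses (not always all listed) in √10 steps, and values are duplicate-plate medians.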
# HCC-78 = system: HCC-78
# Summary of the method: as §1
# RERF-LC-KJ = system: RERF-LC-KJ
# Summary of the method: as §1
# HCC-827 = system: HCC-827
# Summary of the method: as §1
# NCI-H1666 = system: NCI-H1666
# Summary of the method: as §1
# NCI-H647 = system: NCI-H647
# Summary of the method: as §1
# NCI-H2087 = system: NCI-H2087
# Summary of the method: as §1
# COR-L 105 = system: COR-L 105
# Summary of the method: as §1
# 201T = system: 201T
# Summary of the method: as §1
# NCI-H322M = system: NCI-H322M
# Summary of the method: as §1
# NCI-H1915 = system: NCI-H1915
# Summary of the method: as §1
# PC-14 = system: PC-14
# Summary of the method: as §1
compound,measurement,setting,value
NC(=O)Nc1cc(-c2cccc(F)c2)sc1C(=O)N[C@H]1CCCNC1 [AZD7762] + C[C@@H](Oc1cc(-c2cnn(C3CCNCC3)c2)cnc1N)c1c(Cl)ccc(F)c1Cl [Crizotinib] (partner 1 µM),relative viability,NCI-H520; first compound 0.01 µM,0.975
same,relative viability,NCI-H520; first compound 0.03162 µM,0.692
same,relative viability,NCI-H520; first compound 0.1 µM,0.477
same,relative viability,NCI-H520; first compound 0.3162 µM,0.504
same,relative viability,NCI-H520; first compound 1 µM,0.276
same,relative viability,HCC-78; first compound 0.01 µM,0.364
same,relative viability,HCC-78; first compound 0.03162 µM,0.35
same,relative viability,HCC-78; first compound 0.1 µM,0.317
same,relative viability,HCC-78; first compound 0.3162 µM,0.326
same,relative viability,HCC-78; first compound 1 µM,0.255
same,relative viability,RERF-LC-KJ; first compound 0.01 µM,0.897
same,relative viability,RERF-LC-KJ; first compound 0.03162 µM,0.894
same,relative viability,RERF-LC-KJ; first compound 0.1 µM,0.777
same,relative viability,RERF-LC-KJ; first compound 0.3162 µM,0.809
same,relative viability,RERF-LC-KJ; first compound 1 µM,0.742
same,relative viability,HCC-827; first compound 0.01 µM,0.948
same,relative viability,HCC-827; first compound 0.03162 µM,0.904
same,relative viability,HCC-827; first compound 0.1 µM,0.933
same,relative viability,HCC-827; first compound 0.3162 µM,0.965
same,relative viability,HCC-827; first compound 1 µM,0.843
same,relative viability,NCI-H1666; first compound 0.01 µM,1.58
same,relative viability,NCI-H1666; first compound 0.03162 µM,1.16
same,relative viability,NCI-H1666; first compound 0.1 µM,1.23
same,relative viability,NCI-H1666; first compound 0.3162 µM,0.993
same,relative viability,NCI-H1666; first compound 1 µM,0.695
same,relative viability,NCI-H647; first compound 0.01 µM,1.15
same,relative viability,NCI-H647; first compound 0.03162 µM,1.11
same,relative viability,NCI-H647; first compound 0.1 µM,0.941
same,relative viability,NCI-H647; first compound 0.3162 µM,0.546
same,relative viability,NCI-H647; first compound 1 µM,0.105
same,relative viability,NCI-H2087; first compound 0.01 µM,0.906
same,relative viability,NCI-H2087; first compound 0.03162 µM,0.879
same,relative viability,NCI-H2087; first compound 0.1 µM,1.02
same,relative viability,NCI-H2087; first compound 0.3162 µM,0.825
same,relative viability,NCI-H2087; first compound 1 µM,0.846
same,relative viability,COR-L 105; first compound 0.01 µM,0.877
same,relative viability,COR-L 105; first compound 0.03162 µM,0.772
same,relative viability,COR-L 105; first compound 0.1 µM,0.591
same,relative viability,COR-L 105; first compound 0.3162 µM,0.406
same,relative viability,COR-L 105; first compound 1 µM,0.271
same,relative viability,201T; first compound 0.01 µM,0.969
same,relative viability,201T; first compound 0.03162 µM,1.02
same,relative viability,201T; first compound 0.1 µM,1.03
same,relative viability,201T; first compound 0.3162 µM,1.04
same,relative viability,201T; first compound 1 µM,1.16
same,relative viability,NCI-H322M; first compound 0.01 µM,1.04
same,relative viability,NCI-H322M; first compound 0.03162 µM,0.845
same,relative viability,NCI-H322M; first compound 0.1 µM,0.883
same,relative viability,NCI-H322M; first compound 0.3162 µM,0.962
same,relative viability,NCI-H322M; first compound 1 µM,0.417
same,relative viability,NCI-H1915; first compound 0.01 µM,0.93
same,relative viability,NCI-H1915; first compound 0.03162 µM,0.919
same,relative viability,NCI-H1915; first compound 0.1 µM,0.891
same,relative viability,NCI-H1915; first compound 0.3162 µM,0.944
same,relative viability,NCI-H1915; first compound 1 µM,0.823
same,relative viability,PC-14; first compound 0.01 µM,0.943
same,relative viability,PC-14; first compound 0.03162 µM,0.859
